Data taken from PubChem BioAssay (NCI).
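How tested: cells in 96-well plates exposed to compound for 48 hours at five concentrations. At the TGI there is no net growth.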

Tests used:
Test in all cases: NCI tumour cell line growth inhibition, 48 h
[1] = tested on: M14 melanoma
[2] = tested on: SNB-19 CNS
[3] = tested on: HCC-2998 colon
[4] = tested on: CCRF-CEM leukemia
[5] = tested on: SN12C renal
[6] = tested on: ACHN renal
[7] = tested on: SK-OV-3 ovarian
[8] = tested on: A549 NSCLC
[9] = tested on: OVCAR-4 ovarian
[10] = tested on: HCT-116 colon
[11] = tested on: HOP-62 NSCLC
[12] = tested on: EKVX NSCLC
[13] = tested on: NCI-H226 lung
[14] = tested on: HOP-92 NSCLC
[15] = tested on: A498 renal
[16] = tested on: OVCAR-8 ovarian
[17] = tested on: RXF 393 renal
[18] = tested on: LXFL 529 NSCLC
[19] = tested on: KM20L2 colon
[20] = tested on: HT29 colon
[21] = tested on: DMS 114 small cell lung
[22] = tested on: DLD-1 colon
[23] = tested on: U251 CNS
[24] = tested on: SR leukemia
[25] = tested on: DMS 273 small cell lung
[26] = tested on: HOP-18 NSCLC
[27] = tested on: M19-MEL melanoma
[28] = tested on: 786-0 renal
[29] = tested on: UACC-62 melanoma
[30] = tested on: MOLT-4 leukemia
[31] = tested on: HCT-15 colon
[32] = tested on: SF-295 CNS
[33] = tested on: SNB-78 CNS
[34] = tested on: SF-268 CNS
[35] = tested on: MALME-3M melanoma
[36] = tested on: NCI-H23 lung
[37] = tested on: SK-MEL-28 melanoma
[38] = tested on: COLO 205 colon
[39] = tested on: K-562 leukemia
[40] = tested on: IGROV1 ovarian
[41] = tested on: SW-620 colon
[42] = tested on: RPMI-8226 leukemia
[43] = tested on: UO-31 renal
[44] = tested on: NCI-H522 lung
[45] = tested on: HL-60(TB) leukemia
[46] = tested on: SNB-75 CNS
[47] = tested on: SF-539 CNS
[48] = tested on: UACC-257 melanoma
[49] = tested on: SK-MEL-5 melanoma
[50] = tested on: XF 498 CNS
[51] = tested on: SK-MEL-2 melanoma
[52] = tested on: LOX IMVI melanoma
[53] = tested on: KM12 colon
[54] = tested on: OVCAR-3 ovarian
[55] = tested on: TK-10 renal
[56] = tested on: CAKI-1 renal
[57] = tested on: OVCAR-5 ovarian
[58] = tested on: NCI-H460 lung

Question: What does the source list for CC(=O)c1ccc(N2C(=O)C3c4[nH]c5ccccc5c4C4CCC(C(C)(C)C)CC4C3C2=O)cc1 (centres undefined)?
Answer: TGI [1]: 67.8 µM; TGI [2]: > 100 µM; TGI [3]: 35.8 µM; TGI [4]: > 100 µM; TGI [5]: 32.8 µM; TGI [6]: 87.9 µM; TGI [7]: > 100 µM; TGI [8]: 50.9 µM; TGI [9]: 94.8 µM; TGI [10]: 30.7 µM; TGI [11]: 38.5 µM; TGI [12]: 94.1 µM; TGI [13]: 47.6 µM; TGI [14]: 47.1 µM; TGI [15]: 71.3 µM; TGI [16]: 54.7 µM; TGI [17]: 32.7 µM; TGI [18]: > 100 µM; TGI [19]: 36.4 µM; TGI [20]: 32.6 µM; TGI [21]: 59.8 µM; TGI [22]: > 100 µM; TGI [23]: 39.8 µM; TGI [24]: 70.9 µM; TGI [25]: 33.3 µM; TGI [26]: > 100 µM; TGI [27]: 42.1 µM; TGI [28]: 34.3 µM; TGI [29]: 59.3 µM; TGI [30]: > 100 µM; TGI [31]: 92.8 µM; TGI [32]: 88.9 µM; TGI [33]: 74.9 µM; TGI [34]: 36.7 µM; TGI [35]: 34.4 µM; TGI [36]: 45.3 µM; TGI [37]: 83.2 µM; TGI [38]: 29.1 µM; TGI [39]: > 100 µM; TGI [40]: > 100 µM; TGI [41]: 54.3 µM; TGI [42]: 54 µM; TGI [43]: > 100 µM; TGI [44]: 61.9 µM; TGI [45]: 76.9 µM; TGI [46]: 94.7 µM; TGI [47]: 46.1 µM; TGI [48]: > 100 µM; TGI [49]: 58.8 µM

Question: O/N=C1/CCC/C1=C\c1ccccc1 was tested. Which TGI [1] did it give?
Answer: Its TGI is > 100 µM.

Question: What about the TGI [2] of the same compound?
Answer: Its TGI is > 100 µM.

Question: And the TGI [3]?
Answer: The TGI was > 100 µM.

Question: What about the TGI [4] of the same compound?
Answer: The TGI was > 100 µM.

Question: And the TGI [50]?
Answer: Its TGI is > 100 µM.

Question: What about the TGI [5] of the same compound?
Answer: Its TGI is > 100 µM.

Question: And the TGI [6]?
Answer: The TGI was > 100 µM.

Question: And the TGI [51]?
Answer: The TGI was > 100 µM.

Question: What about the TGI [7] of the same compound?
Answer: The TGI was > 100 µM.

Question: And the TGI [52]?
Answer: Its TGI is > 100 µM.

Question: What about the TGI [8] of the same compound?
Answer: The TGI was > 100 µM.

Question: What about the TGI [9] of the same compound?
Answer: Its TGI is > 100 µM.

Question: What about the TGI [10] of the same compound?
Answer: The TGI was > 100 µM.

Question: And the TGI [53]?
Answer: The TGI was > 100 µM.

Question: What about the TGI [11] of the same compound?
Answer: The TGI was > 100 µM.

Question: What about the TGI [12] of the same compound?
Answer: The TGI was > 100 µM.

Question: What about the TGI [13] of the same compound?
Answer: The TGI was > 100 µM.

Question: What about the TGI [54] of the same compound?
Answer: Its TGI is > 100 µM.

Question: What about the TGI [55] of the same compound?
Answer: Its TGI is > 100 µM.

Question: What about the TGI [14] of the same compound?
Answer: Its TGI is > 100 µM.

Question: What about the TGI [16] of the same compound?
Answer: The TGI was > 100 µM.

Question: And the TGI [17]?
Answer: Its TGI is > 100 µM.

Question: And the TGI [56]?
Answer: Its TGI is > 100 µM.

Question: And the TGI [18]?
Answer: Its TGI is > 100 µM.

Question: And the TGI [19]?
Answer: The TGI was > 100 µM.

Question: And the TGI [57]?
Answer: Its TGI is > 100 µM.

Question: And the TGI [22]?
Answer: Its TGI is > 100 µM.

Question: And the TGI [23]?
Answer: The TGI was > 100 µM.

Question: What about the TGI [24] of the same compound?
Answer: The TGI was > 100 µM.

Question: And the TGI [25]?
Answer: The TGI was > 100 µM.

Question: And the TGI [26]?
Answer: Its TGI is > 100 µM.

Question: And the TGI [28]?
Answer: The TGI was > 100 µM.

Question: What about the TGI [58] of the same compound?
Answer: Its TGI is > 100 µM.

Question: What about the TGI [29] of the same compound?
Answer: The TGI was > 100 µM.

Question: What about the TGI [30] of the same compound?
Answer: Its TGI is > 100 µM.

Question: And the TGI [31]?
Answer: Its TGI is > 100 µM.

Question: What about the TGI [32] of the same compound?
Answer: Its TGI is > 100 µM.

Question: And the TGI [33]?
Answer: The TGI was > 100 µM.

Question: What about the TGI [34] of the same compound?
Answer: The TGI was > 100 µM.

Question: What about the TGI [35] of the same compound?
Answer: Its TGI is > 100 µM.

Question: And the TGI [36]?
Answer: The TGI was > 100 µM.

Question: What about the TGI [37] of the same compound?
Answer: Its TGI is > 100 µM.

Question: What about the TGI [38] of the same compound?
Answer: The TGI was > 100 µM.

Question: And the TGI [39]?
Answer: The TGI was > 100 µM.

Question: What about the TGI [40] of the same compound?
Answer: The TGI was > 100 µM.

Question: And the TGI [41]?
Answer: The TGI was > 100 µM.

Question: What about the TGI [42] of the same compound?
Answer: The TGI was > 100 µM.

Question: And the TGI [43]?
Answer: Its TGI is > 100 µM.

Question: And the TGI [44]?
Answer: Its TGI is > 100 µM.

Question: And the TGI [45]?
Answer: Its TGI is > 100 µM.

Question: What about the TGI [46] of the same compound?
Answer: Its TGI is 44.8 µM.

Question: What about the TGI [47] of the same compound?
Answer: The TGI was > 100 µM.

Question: And the TGI [48]?
Answer: The TGI was > 100 µM.

Question: And the TGI [49]?
Answer: Its TGI is > 100 µM.

Question: What does the source list for COc1cc(/C=C/C(=O)c2cccc3ccccc23)cc(OC)c1OC?
Answer: TGI [1]: 19.1 µM; TGI [2]: 27.8 µM; TGI [3]: 28.2 µM; TGI [4]: 7.27 µM; TGI [50]: 20.5 µM; TGI [5]: 12.5 µM; TGI [6]: 24.4 µM; TGI [51]: 12.4 µM; TGI [7]: 28.5 µM; TGI [52]: 12.1 µM; TGI [8]: 37 µM; TGI [9]: 19.1 µM; TGI [10]: 13.8 µM; TGI [11]: 18.8 µM; TGI [12]: 28.7 µM; TGI [13]: 30.3 µM; TGI [54]: 25.7 µM; TGI [55]: 27.3 µM; TGI [15]: 10.6 µM; TGI [16]: 4.58 µM; TGI [17]: 7.93 µM; TGI [56]: 23.2 µM; TGI [18]: 10.3 µM; TGI [19]: 13.6 µM; TGI [20]: 14.4 µM; TGI [57]: 27.5 µM; TGI [23]: 18.8 µM; TGI [24]: 73.2 µM; TGI [25]: 23.9 µM; TGI [26]: 24.8 µM; TGI [27]: 38.2 µM; TGI [28]: 14.8 µM; TGI [58]: 14.2 µM; TGI [29]: 21.3 µM; TGI [30]: 34.4 µM; TGI [32]: 22.2 µM; TGI [33]: 12.8 µM; TGI [34]: 18.2 µM; TGI [35]: 24.9 µM; TGI [36]: 18.4 µM; TGI [37]: 19.4 µM; TGI [39]: 14.1 µM; TGI [40]: 43.4 µM; TGI [41]: 7.32 µM; TGI [43]: 30.5 µM; TGI [45]: 4.31 µM; TGI [46]: 23.3 µM; TGI [48]: 19.7 µM; TGI [49]: 23.8 µM

Question: What does the source list for CC(=O)NNc1nc(C)c(C(=O)NNC(=O)C(=O)Nc2ccc(Cl)c([N+](=O)[O-])c2)s1?
Answer: TGI [1]: > 100 µM; TGI [2]: > 100 µM; TGI [3]: > 100 µM; TGI [4]: 56.8 µM; TGI [50]: > 100 µM; TGI [5]: > 100 µM; TGI [6]: > 100 µM; TGI [51]: > 100 µM; TGI [7]: > 100 µM; TGI [52]: > 100 µM; TGI [8]: > 100 µM; TGI [9]: > 100 µM; TGI [10]: > 100 µM; TGI [53]: > 100 µM; TGI [11]: > 100 µM; TGI [12]: > 100 µM; TGI [13]: > 100 µM; TGI [54]: 80.8 µM; TGI [55]: > 100 µM; TGI [14]: > 100 µM; TGI [16]: > 100 µM; TGI [56]: > 100 µM; TGI [18]: > 100 µM; TGI [19]: > 100 µM; TGI [20]: > 100 µM; TGI [57]: > 100 µM; TGI [21]: > 100 µM; TGI [23]: > 100 µM; TGI [24]: > 100 µM; TGI [27]: > 100 µM; TGI [28]: > 100 µM; TGI [58]: > 100 µM; TGI [29]: > 100 µM; TGI [30]: 54.6 µM; TGI [31]: > 100 µM; TGI [32]: > 100 µM; TGI [33]: > 100 µM; TGI [34]: > 100 µM; TGI [35]: > 100 µM; TGI [36]: > 100 µM; TGI [37]: > 100 µM; TGI [38]: > 100 µM; TGI [39]: 74.4 µM; TGI [40]: > 100 µM; TGI [41]: > 100 µM; TGI [42]: > 100 µM; TGI [43]: > 100 µM; TGI [44]: 79.5 µM; TGI [45]: > 100 µM; TGI [47]: > 100 µM; TGI [48]: > 100 µM; TGI [49]: > 100 µM
